From patent US4975434A, “Antiviral and anticancer cyclopentenyl cytosine” (priority 1989, dated 1990)
≈ marks a conversion by molar mass, not a printed value. Where “and” joins values, the source holds several entries; their conditions need not be identical. Equal values may be shown once. Entries after “also recorded” stand apart in the source; their conditions may differ.

What was measured:
[1] = test system: vaccinia virus (IHD strain); type: in vivo, mouse (CD-I)
[2] = test system: Huf (human diploid foreskin cells); assay: Toxicity to Huf host cells (gross cell morphology) in the VZV assay; type: cell-based
tumors = assay: Antitumor activity (general statement); conditions: general statement
CTP pools = assay: Nucleotide (CTP, UTP, ATP, GTP) levels in treated cells (HL-60); type: cell-based, human
Rift Valley Fever virus = conditions: USAMRIID, Fort Detrick
[3] = test system: Punta Toro virus, strain Adames; assay: microbe, parasite or virus in culture; type: cell-based, Punta Toro virus; host Vero cells
[4] = test system: Herpes simplex type 1 (TK-), strain HF; assay: microbe, parasite or virus in culture; type: cell-based
[5] = test system: Janapese Encephalitis virus, strain Najayama; assay: Antiviral test in vitro, Japanese encephalitis virus; type: cell-based, Japanese encephalitis virus; host Vero cells
[6] = test system: P388/ara-C (Arabinosyl cytosine resistant P388 leukemia); assay: In vivo antitumor test, ara-C resistant P388 leukemia in mice; conditions: for activity against ara-C resistant P388: result in words
Rhinovirus 1A = assay: Antiviral activity against rhinovirus 1A; type: cell-based; conditions: result in words
MX-1 Mammary = assay: Human tumor xenograft in athymic mice, MX-1 mammary (subrenal capsule); conditions: for % Tumor Inhibition: day 0 to 11; for % tumor weight inhibition: Table IV, QD1-9, day 0 to day 11
[7] = test system: MRC5 (diploid human embryonic lung cells); assay: Toxicity to MRC5 host cells (gross cell morphology) in the CMV assay
[8] = test system: HL-60 DNA synthesis / RNA synthesis; assay: Inhibition of nucleic acid (DNA, RNA) synthesis in HL-60 cells; type: cell-based, human
CTP synthesase = assay: Inhibition of CTP synthesis (CTP synthesase); type: biochemical; conditions: result in words
[9] = minimum toxic drug concentration / ID50, Vero cells
[10] = Table II Experiment 1, tumor IP, IP QD1-9, OD 1.5 mg/kg/injection
[11] = Table II Experiment 2, tumor IP, IP QD1-9, OD 1.5 mg/kg/injection

Q: How did the “activity in vivo, mouse tail pox model” value ([1]; 1.5 mg/kg) turn out when `Nc1ccn([C@@H]2C=C(CO)[C@@H](O)[C@H]2O)c(=O)n1` [CPE-C] was run?
A: good protection; also recorded: Excellent activity

Q: What about the “Pox Count (mean value, 20 mice)” value ([1]; CPE-C 1.5 mg/kg, QD 1-7 subcutaneous, PBS control 45.8) of the same molecule?
A: 0.8

Q: And the “Host cell toxicity (gross cell morphology)” value ([2]; 320 μg/ml)?
A: Slightly toxic

Q: And the “Host cell toxicity (gross cell morphology)” value ([2]; 100 and 32 μg/ml)?
A: Very slightly toxic

Q: And the “activity against ara-C resistant tumors and human tumors grown in mice” value (tumors)?
A: particularly potent and active agents

Q: What about the “CTP levels following drug removal” value (CTP pools; HL-60) of the same molecule?
A: sustained reduction in CTP levels

Q: And the “level of CTP” value (CTP pools; during CPE-C treatment)?
A: rapid and pronounced inhibition

Q: What about the “half-life for the disappearance of CTP” value (CTP pools; during CPE-C treatment, HL-60) of the same molecule?
A: 1.5 to 2 h

Q: What about the “level of UTP, ATP or GTP” value (CTP pools; during CPE-C treatment, HL-60) of the same molecule?
A: not of UTP, ATP or GTP

Q: And the “level of CTP pools” value (CTP pools; treated cells)?
A: near total abrogation of CTP pools

Q: What about the antiviral activity (Rift Valley Fever virus) of the same molecule?
A: particularly active

Q: What about the “VR (virus rating)” value [3] of the same molecule?
A: 1.5

Q: What about the IC50 ([3]; Punta Toro virus, Vero, read-out: ID50) of the same molecule?
A: 1.01 µg/mL (≈ 4.22 µM)

Q: And the “TI (therapeutic index)” value [3, 9]?
A: 0.3

Q: And the antiviral activity ([3]; result in words)?
A: Good activity; also recorded: Virus ratings greater than two

Q: What about the “VR (virus rating)” value ([4]; Vero cells, strain HF, two determinations) of the same molecule?
A: 3.8 and 2.7

Q: What about the antiviral activity ([4]; result in words) of the same molecule?
A: greater than arabinosyl adenine (ara-A); also recorded: Potent activity

Q: What about the IC50 ([5]; Japanese encephalitis virus, Vero, read-out: ID50) of the same molecule?
A: 0.1 µg/mL (≈ 0.418 µM)

Q: What about the “VR (virus rating)” value ([5]; Vero cells, strain Najayama) of the same molecule?
A: 2.4

Q: What about the “TI (therapeutic index)” value [5, 9] of the same molecule?
A: 3.1

Q: And the antiviral activity ([5]; result in words)?
A: Good activity; also recorded: greater potency and higher therapeutic index than Ribavarin

Q: What about the “% ILS” value [6, 10] of the same molecule?
A: 165%

Q: What about the LCK [6, 10] of the same molecule?
A: > 6.5 log

Q: What about the “Number of 30 day survivors out of six mice” value [6, 10] of the same molecule?
A: 3

Q: And the “% ILS” value [6, 11]?
A: 133%

Q: And the LCK [6, 11]?
A: 3.8 log

Q: And the “activity against ara-C resistant P388” value [6]?
A: collaterally sensitive

Q: What about the “activity against ara-C resistant P388” value ([6]; listed as cyclopentenyl cytosine) of the same molecule?
A: significant antitumor activity

Q: What about the antiviral activity (Rhinovirus 1A) of the same molecule?
A: Activity was not seen

Q: And the growth inhibition (MX-1 Mammary)?
A: 100%

Q: What about the “potency relative to 3DU” value (MX-1 Mammary; MX-1 xenograft) of the same molecule?
A: about 100 times

Q: And the “% Tumor Inhibition” value (MX-1 Mammary; Table III Experiment 1, SRC, IP QD1-9, OD 1.5 mg/kg/injection)?
A: 100%

Q: And the “% Tumor Inhibition” value (MX-1 Mammary; Table III Experiment 2, SRC, IP QD1-9, OD 2.25 mg/kg/injection)?
A: 95%

Q: And the “% tumor weight inhibition” value (MX-1 Mammary; CPE-C 1.5 mg/kg)?
A: 94%

Q: And the “% tumor weight inhibition” value (MX-1 Mammary; CPE-C 2.25 mg/kg)?
A: 100%

Q: What about the activity (MX-1 Mammary; result in words) of the same molecule?
A: complete inhibition of tumor growth

Q: And the “Host cell toxicity (gross cell morphology)” value ([7]; 320 μg/ml)?
A: Slightly toxic

Q: What about the “Host cell toxicity (gross cell morphology)” value ([7]; each of 100, 32, 10, 3.2 and 1.0 μg/ml) of the same molecule?
A: Very slightly toxic

Q: And the RNA synthesis ([8]; 10^-7 M)?
A: inhibited to a lesser extent

Q: And the “DNA synthesis, % of control levels” value ([8]; 24 hrs. after exposure to 10^-7 M)?
A: 10%

Q: And the “inhibition of CTP synthesis” value (CTP synthesase)?
A: powerful inhibitors of CTP synthesis
